According to the supplement of paper PMC10307832:

Assays:
Test in all cases: relative viability (nuclei count vs DMSO), 5 days (fraction); higher = more cells survive
Dasatinib + OSI-027 = compound: Cc1nc(Nc2ncc(C(=O)Nc3c(C)cccc3Cl)s2)cc(N2CCN(CCO)CC2)n1 [Dasatinib] + COc1cccc2cc(-c3nc([C@H]4CC[C@H](C(=O)O)CC4)n4ncnc(N)c34)[nH]c12 [OSI-027] (partner 0.5 µM)
Method in brief: (§1)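 Five library-drug doses in √10 steps were combined with a fixed anchor-drug dose, or a single drug was given alone, by pin tool to lung cancer cell lines in 1536-well plates the day after seeding. Nuclei were stained and counted after 5 days. Relative viability is the nuclei count in treated wells over that in vehicle wells, taken as the median of duplicate plates.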

Dasatinib + Phenformin = compound: Cc1nc(Nc2ncc(C(=O)Nc3c(C)cccc3Cl)s2)cc(N2CCN(CCO)CC2)n1 [Dasatinib] + N=C(N)NC(=N)NCCc1ccccc1 [Phenformin] (partner 250 µM)
Method in brief: as §1

XMD13-2 + Tozasertib = compound: C1CC1C(=O)NC2=NNC3=C2C=CC(=C3)C4=CC(=CC=C4)C(=O)NC5CC5 [XMD13-2] + Cc1cc(Nc2cc(N3CCN(C)CC3)nc(Sc3ccc(NC(=O)C4CC4)cc3)n2)n[nH]1 [Tozasertib] (partner 0.1 µM)
Method in brief: as §1

ALW-II-49-7 + Luminespib = compound: Cc1ccc(C(=O)Nc2cccc(C(F)(F)F)c2)cc1Nc1cncc(C(N)=O)c1 [ALW-II-49-7] + CCNC(=O)c1noc(-c2cc(C(C)C)c(O)cc2O)c1-c1ccc(CN2CCOCC2)cc1 [Luminespib] (partner 0.01 µM)
Method in brief: as §1

| Cell Line | relative viability (Dasatinib + OSI-027; first compound 0.005 µM) | relative viability (Dasatinib + OSI-027; first compound 0.01581 µM) | relative viability (Dasatinib + OSI-027; first compound 0.05 µM) | relative viability (Dasatinib + OSI-027; first compound 0.1581 µM) | relative viability (Dasatinib + OSI-027; first compound 0.5 µM) | relative viability (Dasatinib + Phenformin; first compound 0.005 µM) | relative viability (Dasatinib + Phenformin; first compound 0.01581 µM) | relative viability (Dasatinib + Phenformin; first compound 0.05 µM) | relative viability (Dasatinib + Phenformin; first compound 0.1581 µM) | relative viability (Dasatinib + Phenformin; first compound 0.5 µM) | relative viability (XMD13-2 + Tozasertib; first compound 0.05 µM) | relative viability (XMD13-2 + Tozasertib; first compound 0.1581 µM) | relative viability (XMD13-2 + Tozasertib; first compound 0.5 µM) | relative viability (XMD13-2 + Tozasertib; first compound 1.581 µM) | relative viability (XMD13-2 + Tozasertib; first compound 5 µM) | relative viability (ALW-II-49-7 + Luminespib; first compound 0.08 µM) | relative viability (ALW-II-49-7 + Luminespib; first compound 0.253 µM) | relative viability (ALW-II-49-7 + Luminespib; first compound 0.8 µM) | relative viability (ALW-II-49-7 + Luminespib; first compound 2.53 µM) | relative viability (ALW-II-49-7 + Luminespib; first compound 8 µM) |
| --- | --- | --- | --- | --- | --- | --- | --- | --- | --- | --- | --- | --- | --- | --- | --- | --- | --- | --- | --- | --- |
| NCI-H1975 | 0.608 | 0.589 | 0.556 | 0.32 | 0.201 | 0.362 | 0.347 | 0.348 | 0.257 | 0.188 | 0.967 | 0.739 | 0.735 | 0.631 | 0.72 | 0.431 | 0.165 | 0.235 | 0.292 | 0.198 |
| NCI-H1993 | 0.512 | 0.524 | 0.491 | 0.532 | 0.554 | 0.416 | 0.487 | 0.473 | 0.525 | 0.554 | 0.627 | 0.529 | 0.565 | 0.615 | 0.545 | 0.701 | 0.705 | 0.95 | 0.793 | 1.14 |
| NCI-H2009 | 0.698 | 0.501 | 0.407 | 0.189 | 0.158 | 0.554 | 0.47 | 0.366 | 0.206 | 0.187 | 0.849 | 0.7 | 0.798 | 0.728 | 0.749 | 1.04 | 1.02 | 1.04 | 0.845 | 0.728 |
| NCI-H2023 | 0.418 | 0.326 | 0.248 | 0.26 | 0.211 | 0.355 | 0.331 | 0.291 | 0.224 | 0.173 | 0.524 | 0.34 | 0.372 | 0.281 | 0.309 | 0.524 | 0.754 | 0.919 | 0.682 | 0.476 |
| NCI-H2085 | 0.554 | 0.626 | 0.34 | 0.251 | 0.164 | 0.636 | 0.651 | 0.458 | 0.215 | 0.162 | 0.824 | 0.806 | 0.905 | 0.821 | 0.754 | 0.405 | 0.465 | 0.445 | 0.4 | 0.44 |
| NCI-H2087 | 0.571 | 0.607 | 0.697 | 0.531 | 0.278 | 0.517 | 0.461 | 0.562 | 0.343 | 0.161 | 0.264 | 0.239 | 0.268 | 0.223 | 0.207 | 0.142 | 0.166 | 0.197 | 0.171 | 0.171 |
| NCI-H2126 | 0.722 | 0.551 | 0.623 | 0.611 | 0.307 | 0.56 | 0.521 | 0.471 | 0.39 | 0.285 | 0.953 | 0.879 | 0.81 | 0.861 | 0.985 | 0.938 | 0.932 | 0.855 | 0.803 | 0.868 |
| NCI-H2170 | 0.71 | 0.635 | 0.711 | 0.568 | 0.323 | 0.426 | 0.379 | 0.357 | 0.294 | 0.177 | 0.646 | 0.737 | 0.774 | 0.672 | 0.719 | 0.73 | 0.372 | 0.418 | 0.826 | 0.784 |
| NCI-H2228 | 0.757 | 0.552 | 0.522 | 0.31 | 0.308 | 0.354 | 0.298 | 0.28 | 0.242 | 0.218 | 0.267 | 0.32 | 0.273 | 0.209 | 0.237 | 0.255 | 0.14 | 0.16 | 0.145 | 0.215 |
| NCI-H2342 | 0.563 | 0.503 | 0.518 | 0.403 | 0.36 | 0.626 | 0.482 | 0.556 | 0.356 | 0.304 | 0.547 | 0.421 | 0.525 | 0.603 | 0.575 | 0.641 | 0.705 | 0.676 | 0.751 | 0.775 |
| NCI-H2347 | 0.233 | 0.242 | 0.269 | 0.234 | 0.218 | 0.278 | 0.209 | 0.22 | 0.178 | 0.212 | 0.559 | 0.577 | 0.727 | 0.487 | 0.517 | 0.241 | 0.483 | 0.363 | 0.324 | 0.512 |
| NCI-H2405 | 0.581 | 0.418 | 0.353 | 0.245 | 0.161 | 0.363 | 0.301 | 0.258 | 0.153 | 0.137 | 0.788 | 0.645 | 0.801 | 0.707 | 0.712 | 0.788 | 0.598 | 0.646 | 0.474 | 0.459 |
| NCI-H3122 | 0.994 | 1.01 | 1.05 | 0.921 | 0.82 | 0.36 | 0.364 | 0.363 | 0.326 | 0.295 | 0.467 | 0.395 | 0.378 | 0.377 | 0.373 | 0.0922 | 0.0773 | 0.124 | 0.102 | 0.195 |
| PC-3 [JPC-3] | 0.764 | 0.739 | 0.759 | 0.73 | 0.38 | 0.482 | 0.458 | 0.453 | 0.473 | 0.305 | 0.887 | 0.911 | 0.902 | 0.908 | 0.874 | 0.669 | 0.698 | 0.636 | 0.548 | 0.772 |
| PC-14 | 0.99 | 0.772 | 0.679 | 0.384 | 0.0679 | 0.618 | 0.681 | 0.553 | 0.339 | 0.152 | 0.605 | 0.657 | 0.632 | 0.608 | 0.562 | 0.191 | 0.161 | 0.119 | – | 0.125 |
| RERF-LC-KJ | 0.576 | 0.475 | 0.514 | 0.382 | 0.376 | 0.406 | 0.348 | 0.363 | 0.355 | 0.305 | 0.613 | 0.515 | 0.59 | 0.466 | 0.523 | 1.56 | 1.18 | 1.68 | 1.39 | 1.15 |
| SK-LU-1 | 0.271 | 0.167 | 0.167 | 0.14 | 0.152 | 0.342 | 0.257 | 0.193 | 0.179 | 0.148 | 0.335 | 0.338 | 0.432 | 0.309 | 0.323 | 0.184 | 0.221 | 0.21 | 0.192 | 0.157 |
| SK-MES-1 | 0.738 | 0.57 | 0.409 | 0.21 | 0.14 | 0.721 | 0.681 | 0.669 | 0.361 | 0.171 | 0.998 | 0.879 | 0.919 | 0.804 | 0.72 | 0.591 | 0.797 | 0.8 | 0.864 | 0.719 |
| SW 900 | 0.588 | 0.547 | 0.481 | 0.311 | 0.14 | 0.489 | 0.568 | 0.53 | 0.466 | 0.294 | 0.62 | 0.573 | 0.506 | 0.473 | 0.533 | 0.16 | 0.141 | 0.191 | 0.171 | 0.155 |
| SW 1573 | 0.638 | 0.532 | 0.393 | 0.408 | 0.296 | 0.417 | 0.326 | 0.288 | 0.217 | 0.18 | 0.196 | 0.167 | 0.155 | 0.145 | 0.354 | 0.29 | 0.223 | 0.251 | 0.289 | 0.144 |
